Experimental data reported in the NIST ThermoML archive (doi:10.1016/j.jct.2015.07.014).
Numbers after ± are expanded uncertainties.

Details: Fluid (supercritical or subcritical phases), Buoyancy - hydrostatic balance with magnetic suspension - one sinker

`O=C=O` [carbon dioxide] gave a mass density (323.2 K, 10968 kPa) of 497.981 ± 0.29 kg/m3, a mass density (323.24 K, 14966 kPa) of 698.2 ± 0.34 kg/m3 and a mass density (323.24 K, 18962 kPa) of 770.445 ± 0.37 kg/m3. It also gave a mass density (323.24 K, 24961 kPa) of 833.514 ± 0.4 kg/m3, a mass density (323.25 K, 12967 kPa) of 633.58 ± 0.32 kg/m3 and a mass density (323.25 K, 16965 kPa) of 739.597 ± 0.36 kg/m3. For the same compound, the mass density (323.25 K, 22962 kPa) was 815.681 ± 0.39 kg/m3, the mass density (323.25 K, 26959 kPa) was 849.181 ± 0.4 kg/m3 and the mass density (323.25 K, 28037 kPa) was 856.967 ± 0.41 kg/m3. The mass density (323.26 K, 20966 kPa) was 795.018 ± 0.38 kg/m3.
